Experimental data reported in paper PMC9960827, “Cloning and Characterization of Trypanosoma congolense and T. vivax Nucleoside Transporters Reveal the Potential of P1-Type Carriers for the Discovery of Broad-Spectrum Nucleoside-Based Therapeutics against Animal African Trypanosomiasis” (International Journal of Molecular Sciences, 2023).

Columns and labels:
TcoAT1 [1] = type: cell-based, Trypanosoma congolense
Summary of the method: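 Transporter genes were expressed in an L. mexicana line lacking NT1 and NT2 (SUPKO), and 1 × 10^7 cells in HEPES/bicarbonate buffer pH 7.3 took up radiolabeled permeant through an oil layer, with or without inhibitor. Uptake was stopped with ice-cold unlabeled substrate or by centrifugation, and pellets were counted. IC50 against radiolabeled adenosine was converted to Ki by Cheng–Prusoff using the permeant Km.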

[2] = target: T. b. brucei P1 (TbP1/NT2); conditions: cited from earlier work
[3] = target: T. congolense adenosine transporter; experiment: [3H]-adenosine uptake and its inhibition in T. congolense IL3000 bloodstream forms; type: cell-based, Trypanosoma congolense
Summary of the method: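 Bloodstream-form T. congolense IL3000 (1 × 10^7 cells) in HEPES/bicarbonate buffer pH 7.3 took up [3H]-adenosine over a set interval, with or without inhibitor, ending by ice-cold unlabeled substrate stop or centrifugation through oil. Pellet radioactivity gave IC50 by sigmoid fit; Ki followed by Cheng–Prusoff using adenosine Km.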

TvxNT3 = TvxNT3 (Trypanosoma vivax, UniProt F9WV62); experiment: cell-based; type: cell-based
Source text: The information for the T. congolense adenosine transporter (TcoAT1) and four putative T. vivax nucleoside transporters was obtained in the TritrypDB (tritrypdb.org/tritrypdb) genome database. Primers were designed to flank each gene upstream of the 5′ end (forward) and downstream of the 3′ end (reverse) as described (primer sequences in Supplementary Table S2). Following amplification from the genomic DNA of T. congolense or T. vivax, DNA for each extracted gene was ligated into the pNUS-HcN expression vector doubly digested with NdeI using the NEBuilder kit according to the manufacturer’s instructions (New England Biolabs). Construct was transformed into competent E. coli cells, and ligation was confirmed by restriction enzyme digestion of isolated plasmid DNA followed by Sanger sequencing (Source BioScience, Nottingham, UK). Confirmed plasmids were then transfected into L. mexicana cell line in which both NT1 and NT2 were doubly knocked out (SUPKO) and derived from L. mexicana Cas9 [64] as described. Clones grown in medium containing 50 μg/mL neomycin (G418) were collected for further confirmation by PCR with genomic DNA using a forward primer of the transporter gene and a reverse primer of the plasmid.
(§1) Uptake assays using radiolabeled trypanocides and/or nucleosides were carried out as described previously. Briefly, parasite cultures were harvested, washed twice in assay buffer (33 mM HEPES, 98 mM NaCl, 4.6 mM KCl, 0.5 mM CaCl2, 0.07 mM MgSO4, 5.8 mM NaH3PO4, 0.03 mM MgCl2, 23 mM NaHCO3, 14 mM D-glucose, pH 7.3), then resuspended and adjusted to a density of 1 × 10^8 cells/mL in assay buffer. The radiolabeled permeant in the presence or absence of different concentrations of potential inhibitors reconstituted in 100 μL assay buffer was deposited on top of 250 μL oil mix in microcentrifuge tubes; 1 × 10^7 parasites in 100 μL assay buffer were added to the tube and incubated for a pre-determined interval. The reaction was stopped by the addition of 1 mL of a high concentration of ice-cold unlabeled substrate in assay buffer (‘stop solution’) and centrifugation, or by immediate centrifugation at […] as appropriate. The microcentrifuge tubes were flash-frozen, and the bottom of each tube containing the cell pellet was cut off and transferred to a scintillation vial. Cell pellets were lysed in 2% SDS, after which scintillation fluid (Scintlogic U, Lablogic) was added, followed by overnight incubation in the dark. Scintillation was measured in a 300SL (Hidex) scintillation counter (Hidex). All the assays were conducted in triplicate and analysis was carried out using Microsoft Excel and GraphPad Prism. All kinetic parameters were obtained on at least 3 separate occasions.
The dose-dependent uptake assay allowed for the affinity of nucleoside analogs to different nucleoside transporters to be determined by measuring the extent to which the analogs compete with and inhibit the uptake of radiolabel adenosine. This allowed for the determination of biochemical parameters such as Km and Vmax through the application of the Michaelis–Menten equation V0 = Vmax([substrate]/([substrate] + Km)). The 50% Inhibitory Concentration (IC50) of the purines and pyrimidines and their analogs was determined from non-linear regression to sigmoid curves with variable slope (Prism 8), and the IC50 of the inhibitor and the Km of the labeled permeant were then used to calculate the inhibition constant (Ki) of the analogs through the Cheng–Prusoff equation: Ki = IC50/(1 + (L/Km)), where L denotes the radiolabel concentration. The calculated Ki was in turn used to determine the Gibbs free energy (ΔG^0) of the inhibitor–transporter interaction using the equation: ΔG^0 = -RTln(Ki), where R represents the gas constant and T symbolizes the absolute temperature in Kelvin [104].

TbNT10 = test system: TbNT10; design: method as in Al-Salabi et al. [40]; conditions: called Km values; ref Al-Salabi et al. [40]; cited from earlier work
[4] = test system: L. mexicana expressing TbAQP2; design: method as in PMID 24235095; conditions: cited from earlier work
T. congolense IL3000 = experiment: Alamar Blue (resazurin) assay, T. congolense IL3000; type: cell-based, Trypanosoma congolense; conditions: Trypanosoma congolense; BSF, resazurin; read-out: T. congolense IL3000 EC50
Experimental: (§2) EC50 values were determined by plotting to an equation for a sigmoid curve with variable slope (GraphPad Prism 8). All values were the average of at least three independent determinations on different days.

T. congolense 6C3 = experiment: microbe, parasite or virus in culture; type: cell-based, Trypanosoma congolense
Experimental: as §2

T.b.b. B48 = experiment: Alamar Blue (resazurin) assay, T. b. brucei B48; type: cell-based, Trypanosoma brucei brucei; conditions: Trypanosoma brucei, read-out: T.b.b. B48 EC50
Experimental: as §2

L. mexicana SUPKO+TcoAT1 = experiment: microbe, parasite or virus in culture; type: cell-based, Leishmania mexicana
Summary of the method: (§3)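 Values are averages of no fewer than three independent experiments performed on different days, with EC50 derived in each case from a sigmoid dose-response equation with variable slope.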

L. mexicana SUPKO = experiment: microbe, parasite or virus in culture; type: cell-based, Leishmania mexicana
Summary of the method: as §3

L. mexicana SUPKO+TvxNT3 = experiment: microbe, parasite or virus in culture; type: cell-based, Leishmania mexicana
Summary of the method: as §3

L. mexicana Cas9 = experiment: Resazurin drug sensitivity assay, LmexCas9; type: cell-based, Leishmania mexicana; conditions: Leishmania mexicana, read-out: LmexCas9 EC50
Summary of the method: as §3

TcoAT1 [5] = experiment: Uptake of [3H]-pentamidine and [3H]-diminazene in SUPKO+TcoAT1 versus SUPKO; type: cell-based, Trypanosoma congolense; conditions: 25 nM [3H]-pentamidine or 50 nM [3H]-diminazene, SUPKO+TcoAT1 vs SUPKO
Experimental: as §1, with “All the assays were conducted in triplicate and analysis was carried out using Microsoft Excel and GraphPad Prism. All kinetic parameters were obtained on at least 3 separate occasions.” left out

[6] = Resistance Factor relative to SUPKO

TvxNT3, sequence (F9WV62 entry or part of it): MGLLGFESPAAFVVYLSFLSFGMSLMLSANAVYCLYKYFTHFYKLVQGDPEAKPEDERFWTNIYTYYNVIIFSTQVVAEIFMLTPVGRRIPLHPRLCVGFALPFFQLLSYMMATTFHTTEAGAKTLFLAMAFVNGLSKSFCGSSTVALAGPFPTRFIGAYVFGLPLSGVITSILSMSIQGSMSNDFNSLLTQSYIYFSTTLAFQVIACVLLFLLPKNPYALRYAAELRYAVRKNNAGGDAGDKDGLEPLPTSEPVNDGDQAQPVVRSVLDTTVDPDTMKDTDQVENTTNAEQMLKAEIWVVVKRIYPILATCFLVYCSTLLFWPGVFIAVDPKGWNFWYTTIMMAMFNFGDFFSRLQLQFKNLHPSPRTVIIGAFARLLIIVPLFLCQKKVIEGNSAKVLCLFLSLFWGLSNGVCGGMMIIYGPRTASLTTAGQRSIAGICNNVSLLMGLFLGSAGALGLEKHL

## O=c1[nH]cnc2c1ncn2[C@@H]1O[C@H](CO)[C@@H](O)[C@H]1O [Inosine]
TcoAT1 [1]; 0.05 µM [3H]-adenosine, 10 s, IC50 converted to Ki, read-out: Ki on the transport of [3H]-adenosine
  Ki: 550 ± 90 nM
TcoAT1 [1]; Gibbs free energy of binding, from Km or Ki
  ΔG0: -8.53 kcal/mol
TcoAT1 [1]; loss of Gibbs free energy of binding relative to the parent nucleoside
  δ(ΔG0): 0.163 kcal/mol
[2]; T. b. brucei bloodstream forms, read-out: Tbb P1 Ki
  Ki: 440 ± 100 nM
[2]
  Tbb P1 ΔG0: -8.68 kcal/mol
[3]; 0.05 µM [3H]-adenosine, 30 s, IC50 converted to Ki, read-out: Ki on the transport of [3H]-adenosine
  Ki: 270 ± 20 nM
[3]; calculated from Km or Ki
  ΔG0, Gibbs free energy of interaction: -8.96 kcal/mol
TvxNT3; 100 µM inhibitor, 50 nM [3H]-adenosine, read-out: [3H]-adenosine uptake remaining in presence of inhibitor
  remaining activity at 100 µM: < 25%
TvxNT3; difference in ΔG0 relative to the parent purine (adenosine or inosine)
  δ(ΔG0): 1.21 kcal/mol
TbNT10
  Km: 0.53 µM

## N=C(N)c1ccc(OCCCCCOc2ccc(C(=N)N)cc2)cc1 [Pentamidine, reference compound]
[4]
  sensitization upon expression of TbAQP2: 40 fold
T. congolense IL3000
  EC50: 550 ± 110 nM
T. congolense 6C3; Trypanosoma congolense, read-out: T. congolense 6C3 EC50
  EC50: 440 ± 150 nM
T. congolense 6C3; resistance factor = EC50 (test strain)/EC50(control strain)
  T. congolense 6C3 RF: 0.79
T.b.b. B48
  EC50: 340 ± 60 nM
L. mexicana SUPKO+TcoAT1; Leishmania mexicana, read-out: SUPKO+TcoAT1 EC50
  EC50: 1730 ± 200 nM
L. mexicana SUPKO+TcoAT1; [6]
  SUPKO+TcoAT1 RF (SUPKO): 1.1
L. mexicana SUPKO; Leishmania mexicana, read-out: SUPKO EC50, resazurin, promastigotes
  EC50: 1830 ± 290 nM
L. mexicana SUPKO; Resistance Factor = EC50(SUPKO)/EC50(Cas9)
  SUPKO RF (Cas9): 1.28
L. mexicana SUPKO+TvxNT3; Leishmania mexicana, read-out: SUPKO+TvxNT3 EC50
  EC50: 2310 ± 180 nM
L. mexicana SUPKO+TvxNT3; [6]
  SUPKO+TvxNT3 RF (SUPKO): 0.77
L. mexicana Cas9
  EC50: 1430 ± 50 nM
TcoAT1 [5]
  effect of the expression of TcoAT1 on the uptake of the trypanocide: no effect
